According to ChEMBL document CHEMBL1201861, “Genomics of Drug Sensitity in Cancer screening data, Wellcome Trust Sanger Institute”:

Key:
[1] = tested on: SKM-1; assay: SANGER: Inhibition of human SKM-1 cell growth in a cell viability assay.; type: functional, cell-based; conditions: Homo sapiens, SKM-1
[2] = tested on: EW-12; assay: SANGER: Inhibition of human EW-12 cell growth in a cell viability assay.; type: functional, cell-based; conditions: Homo sapiens, EW-12
[3] = tested on: NCI-H1694; assay: cells; type: functional, cell-based, Homo sapiens; conditions: Homo sapiens, NCI-H1694;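 also: cell viability assay measuring inhibition of growth in human NCI-H1694 cells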
Description: SANGER: Inhibition of human NCI-H1694 cell growth in a cell viability assay.

[4] = tested on: NB14; assay: cells; type: functional, cell-based, Homo sapiens; conditions: Homo sapiens, NB14;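 also: growth inhibition of NB14 cells measured with a cell viability assay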
Description: SANGER: Inhibition of human NB14 cell growth in a cell viability assay.

[5] = tested on: NCI-H889; assay: cells; type: functional, cell-based, Homo sapiens; conditions: Homo sapiens, NCI-H889;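 also: cell growth inhibition of the cell line, read out with a viability assay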
Description: SANGER: Inhibition of human NCI-H889 cell growth in a cell viability assay.

[6] = tested on: IMR-5; assay: cells; type: functional, cell-based, Homo sapiens; conditions: Homo sapiens, IMR-5; read-out: IC50;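 also: growth inhibition of human IMR-5 cells, read out with a cell viability assay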
Description: SANGER: Inhibition of human IMR-5 cell growth in a cell viability assay.

[7] = tested on: KP-N-RT-BM-1; assay: SANGER: Inhibition of human KP-N-RT-BM-1 cell growth in a cell viability assay.; type: functional, cell-based
[8] = tested on: NCI-H716; assay: cells; type: functional, cell-based, Homo sapiens; conditions: Homo sapiens, NCI-H716;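 also: growth inhibition of human NCI-H716 cells, measured by a cell viability assay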
Description: SANGER: Inhibition of human NCI-H716 cell growth in a cell viability assay.

SMILES | IC50 [1] [µM] | IC50 [2] [µM] | IC50 [3] [µM] | IC50 [4] [µM] | IC50 [5] [µM] | IC50 [6] [µM] | IC50 [7] [µM] | IC50 [8] [µM]
COc1cc(N2CCC(N3CCN(C)CC3)CC2)ccc1Nc1ncc(Cl)c(Nc2ccccc2S(=O)(=O)C(C)C)n1 [TAE-684] | > 2 | > 2 | > 2 | 0.438 | > 2 | > 2 | 0.331 | 1.07
NC(=O)c1cccc(-c2cc(Nc3ccc(OC(F)(F)F)cc3)ncn2)c1 | > 1.28 | > 1.28 | > 1.28 | > 1.28 | > 1.28 | > 1.28 | > 1.28 | > 1.28
Cc1cc(N2CCOCC2)cc2[nH]c(-c3c(NC[C@@H](O)c4cccc(Cl)c4)cc[nH]c3=O)nc12 | > 5.12 | > 5.12 | > 5.12 | > 5.12 | > 5.12 | > 5.12 | 1.44 | > 5.12
C[C@@H](Oc1cc(-c2cnn(C3CCNCC3)c2)cnc1N)c1c(Cl)ccc(F)c1Cl [CRIZOTINIB] | > 2 | > 2 | > 2 | > 2 | > 2 | > 2 | > 2 | > 2
C=CC(=O)N1CCCC(Nc2nc(Nc3ccc(N(C)C(=O)CC)cc3)nc3[nH]cnc23)C1 (stereo not given) | > 10.2 | > 10.2 | > 10.2 | > 10.2 | > 10.2 | > 10.2 | > 10.2 | > 10.2
